According to article PMC7343616 (The FEBS journal, 2020):

Assays:
wild-type PR = conditions: read-out: Ki for PR, ref Park et al. 2016. Biochemistry [18]; cited from earlier work
PRS5B [1] = test: FRET-based enzyme kinetic inhibition assay; type: biochemical, HIV-1; conditions: Ki for mutant/Ki for wild-type
PRS5B [2] = target: PRS5B (Human immunodeficiency virus 1, UniProt P03367, A522V/A571V/C567A/C595A/E521D/E535N/G573T/I584V/L510I/L524M/M536I/N583D/Q507K/V511I, form not given); test: FRET-based enzyme kinetic inhibition assay; type: biochemical, HIV-1; conditions: read-out: Ki for PRS5B; FRET substrate, 50 mM MES pH 5.6, 37°C; mean ± SD (n=3–5)
isolate with PRS5B = conditions: ref Stanford HIV database; cited from earlier work
PR^S17 = conditions: Ki for mutant/Ki for wild-type; ref Park et al. 2016. Biochemistry [18]; cited from earlier work

## Cc1c(O)cccc1C(=O)N[C@@H](CSc1ccccc1)[C@H](O)CN1C[C@H]2CCCC[C@H]2C[C@H]1C(=O)NC(C)(C)C [NFV, nelfinavir]
wild-type PR
  Ki: 0.36 nM

## CC(C)(C)NC(=O)[C@@H]1CN(Cc2cccnc2)CCN1C[C@@H](O)C[C@@H](Cc1ccccc1)C(=O)N[C@H]1c2ccccc2C[C@H]1O [IDV, indinavir]
wild-type PR
  Ki: 0.25 nM

## Cc1cccc(C)c1OCC(=O)N[C@@H](Cc1ccccc1)[C@@H](O)C[C@H](Cc1ccccc1)NC(=O)[C@H](C(C)C)N1CCCNC1=O [LPV, lopinavir]
PRS5B [1]
  PRS5B Ki fold change: 8,000 fold
PRS5B [2]
  Ki: 160 ± 10 nM
Isolate with PRS5B
  resistance in PhenoSense assay: significant resistance, although not the highest level
wild-type PR
  Ki: 0.02 nM
PR^S17
  PR^S17 Ki fold change: 3,650 fold

## CC(C)(C)NC(=O)[C@@H]1C[C@@H]2CCCC[C@@H]2CN1C[C@@H](O)[C@H](Cc1ccccc1)NC(=O)[C@H](CC(N)=O)NC(=O)c1ccc2ccccc2n1 [SQV, saquinavir]
wild-type PR
  Ki: 0.39 nM

## COC(=O)N[C@H](C(=O)N[C@@H](Cc1ccccc1)[C@@H](O)CN(Cc1ccc(-c2ccccn2)cc1)NC(=O)[C@@H](NC(=O)OC)C(C)(C)C)C(C)(C)C [ATV, atazanavir]
PRS5B [2]
  Ki: 8.4 ± 0.9 nM
wild-type PR
  Ki: 0.035 nM
PR^S17
  PR^S17 Ki fold change: 2,000 fold

## CC(C)CN(C[C@@H](O)[C@H](Cc1ccccc1)NC(=O)O[C@H]1CO[C@H]2OCC[C@H]21)S(=O)(=O)c1ccc(N)cc1 [DRV, darunavir]
wild-type PR
  Ki: 0.005 nM

## CC(C)CN(C[C@@H](O)[C@H](Cc1ccccc1)NC(=O)O[C@H]1CCOC1)S(=O)(=O)c1ccc(N)cc1 [APV, amprenavir]
wild-type PR
  Ki: 0.2 nM

## CCC[C@@]1(CCc2ccccc2)CC(O)=C([C@H](CC)c2cccc(NS(=O)(=O)c3ccc(C(F)(F)F)cn3)c2)C(=O)O1 [TPV, tipranavir]
PRS5B [2]
  Ki: 8.6 ± 1.2 nM
